Measurements reported in patent publication US9630964B2, “Fluoro-9-methyl-β-carbolines” (priority 2013, dated 2017).
≈ marks a conversion by molar mass, not a printed value.

What was measured:
[1] = tested on: DRD2S (short variant of dopamine receptor subtype 2); experiment: Quantitative RT-PCR, relative gene expression of DRD2S in SH-SY5Y cells; assay type: cell-based, human; conditions: 30 μM each
Experimental: (§1) SH-SY5Y cell lines, which were provided by the institute of human genetics of university hospital Eppendorf and which they in turn received from Braunschweig resource center, were used again for the RT-PCR experiments (reverse transcriptase polymerase chain reaction) carried out for this purpose.
(§2) The cells were incubated in MEM (Minimum essential medium, Life Technologies) with 10% FCS (fetal calf serum, Biochrom AG) and penicillin/streptomycin (Biochrom AG). The cells were seeded with a density of 1×10^5 cells/cm^2 in 25 cm^2 cell culture bottles (Falcon, cell culture treated) with 5 mL medium. Stock solutions of 10 mmol/L of compounds 9-methyl-β-carboline (AC-002 or 9MβC) and 6-fluoro-9-methyl-β-carboline (AC-102 or 6F9MβC), respectively were prepared in distillated water and sterile filtered. One day after the cell seeding the compounds were added in corresponding amounts (5-55 μL) to reach final concentration in the medium of 10 μM, 20 μM and 30 μM for 6F9MβC and 30 μM, 50 μM and 70 μM for 9MβC. The references received only the corresponding amount of solvent (distilled water). The medium was changed once a week.
(§3) The cells were regularly microscopically examined and harvest after 2, 7 and 14 days of incubation time, washed with PBS and immediately frozen at −80° C.
(§4) The RNA-isolation was done with the HighPure RNA Isolation kit of the company Roche. This isolation includes a DNaseI digestion. The concentration of RNA was measured with nanoDrop spectrometer and the RNA integrity was determined with the aid of the Bioanalyzer 2100 (Agilent). By using random hexamer primers, protector RNA inhibitor (Roche) and transcriptor reverse transcriptase (fermentas), 300 ng RNA were transcribed into cDNA per each sample.
(§5) After the reaction, this run was diluted 1:4 and thereof 2 μL per each quantitative RT-PCR were used. This was performed in a LightCycler 480 under standard conditions in the SybrGreen format with annealing temperatures determined for each primer individually. If possible, exon spanning primers were used.
(§6) The specificity was verified by melting curve analysis and subsequent gel electrophoresis. For each PCR the PCR efficiency and the Cq value was determined by the program LinRegPCR and these were used in further calculations. B2M (β2-microglobulin) was identified from multiple reference genes to be suitable for examination conditions. All results are results relative to the corresponding reference conditions, at which only solvent was administered for the specified period of time (i.e. 2 days, 7 days or 14 days). In FIGS. 5A to 5I are also relative gene expressions (relative to reference conditions) presented. Here, the 2-day exposition is presented in light grey, the 7-day exposition in dark grey and the 14-day exposition in black. Every measured value from FIGS. 5A-5I represents a mean value of 3 independent biologic samples.
(§7) Analogous to example 4 RT-PCR experiments with the inventive active agent 7-fluoro-9-methyl-β-carboline (7F9MβC) were also performed for some important cellular factors. The experimental procedure was here identical to the experiments with 6-fluoro-9-methyl-β-carboline and 9-methyl-β-carboline. Here the same (like for 6F9MβC) final concentrations of 30 μM, 50 μM and 70 μM 7F9MβC for the culture medium were employed. The examined factors were BDNF (brain-derived neurotrophic factor), Lif (Leukemia inhibitory factor), DRD2S (short variant of dopamine receptor subtype 2) as well as DKK1 (Dickkopf-related protein 1). The same primers, that were already listed for the respective target genes in example 4 (Tab. 1) were used. As already noted, especially BDNF and Lif belongs to the most important factors for cellurar repair processes after traumas in the inner ear.

[2] = tested on: BDNF (brain-derived neurotrophic factor); experiment: Quantitative RT-PCR, relative gene expression of BDNF in SH-SY5Y cells; assay type: cell-based, human; conditions: 30 μM each
Experimental: as §1, §2, §3
The RNA-isolation was done with the HighPure RNA Isolation kit of the company Roche. […] The concentration of RNA was measured with nanoDrop spectrometer and the RNA integrity was determined with the aid of the Bioanalyzer 2100 (Agilent). […]
After the reaction, this run was diluted 1:4 and thereof 2 μL per each quantitative RT-PCR were used. This was performed in a LightCycler 480 under standard conditions in the SybrGreen format with annealing temperatures determined for each primer individually. […]
The specificity was verified by melting curve analysis and subsequent gel electrophoresis. For each PCR the PCR efficiency and the Cq value was determined by the program LinRegPCR and these were used in further calculations. […] Every measured value from FIGS. 5A-5I represents a mean value of 3 independent biologic samples. […]

[3] = tested on: Lif (Leukemia inhibitory factor); experiment: Quantitative RT-PCR, relative gene expression of Lif in SH-SY5Y cells; assay type: cell-based, human; conditions: 30 μM each
Experimental: as §1, §2, §3, §4, §5, §6, §7

[4] = guinea pig, in vivo
Experimental: For better evaluation of half times of 9-methyl-β-carboline (9MβC), 6-fluoro-9-methyl-β-carboline (6F9MβC) and 7-fluoro-9-methyl-β-carboline (7F9MβC) in animal organism and more precisely in perilymph (the notified site of action), experiments with guinea pigs were conducted. Therefore, the respective active agent (in total 1.4 mg active agent per ear), packed in 40 μl of a hydrogel (18% Poloxamer 407 and 0.6% alginate), was administered at once in front of the membrane of the round window of narcotized guinea pigs. […] After expiry of the desired time (20 min, 2 h, 8 h or 24 h), each time 5 μL perilymph were removed under anesthesia from the top of the cochlea (apex). Subsequently, the animal was killed. Per each time (20 min, 2 h, 8 h or 24 h) measured values were taken of at least ears and averaged.
The concentration of the corresponding active agent in perilymph samples was determined by high-performance liquid chromatography (HPLC, partly also named as high-pressure liquid chromatography) and measurement of auto fluorescence of the respective active agent. For HPLC the eluent consisted to 45% of 90% acetonitrile and to 55% of ammonium acetate (40 mM, pH<5). The flow rate was 0.4 mL/min and injection volume was 10 μL. Each sample was diluted with 60% methanol, if the signal was too strong. After each run the injection needle was washed with 100% isopropanol. The detection limit was 20 fmol/L.
From the determined active agent concentrations the elimination half times were then calculated.

[5] = tested on: DKK1 (Dickkopf-related protein 1); experiment: Quantitative RT-PCR, relative gene expression of DKK1 in SH-SY5Y cells; assay type: cell-based, human; conditions: 30 μM each
Experimental: as §1, §2, §3, §4, §5, §6
as §7, with “The same primers, that were already listed for the respective target genes in example 4 (Tab. 1) were used. As already noted, especially BDNF and Lif belongs to the most important factors for cellurar repair processes after traumas in the inner ear.” left out

hearing threshold = experiment: Acoustically evoked potentials: hearing threshold after acoustic trauma; assay type: in vivo; conditions: guinea pig, total 0.35 mg per ear
Experimental: (§8) To trigger an acoustic trauma, guinea pigs were anesthetized with 60 mg/kg ketamine and 8 mg/kg xylazine. Then Bepanten ointment (Bayer) was administered to the eyes and the animal was put in a soundproof chamber. A calibrated speaker was placed directly above the head of the animal, wherein it was set to emit a half octave band, centered around 8 kHz, with a volume of 110 dB for duration of 30 minutes.
As measure for evaluation of the hearing threshold of the guinea pig acoustically evoked potentials were measured. Therefore, the electrophysiological activity of the nerve cells in the brain stem that forward impulses from the inner ear was derived after sonication of the ear with 8, 11.3, 16, 22.6 and 32 kHz. The sonification was carried out ascendingly from 0 dB to 90 dB in single steps of 5 dB.
The measurement was carried out 3 days before the acoustic trauma (D-3), 30 minutes after the acoustic trauma (D0) as well as 14 days after the acoustic trauma (D14).
Per animal one ear was not treated and used as intra-individual control (hierin partly abbreviated to “contr.”) and the second ear was treated with 6-fluoro-9-methyl-β-carboline. Therefore, one hour after the acoustic trauma a dose of 0.12 mg 6-fluoro-9-methyl-β-carboline (in a hydrogel as vehicle) was administered intratympanically. 3 days after the acoustic trauma a further intratympanic administration of 0.06 mg 6-fluoro-9-methyl-β-carboline was carried out. The measurements were conducted on four guinea pigs (n=4).
Afterwards, the remaining shift of hearing threshold (also named as permanent shift of hearing threshold) was determined from the measured values before the acoustic trauma (D-3) and after 14 days (D14). From the measured values directly after the acoustic trauma (D0) and after 14 days (D14) the recovery from the trauma (D0-D14) was also determined.
Analogous to the above performed experiments with 6-fluoro-9-methyl-β-carboline, also corresponding experiments with 9-methyl-β-carboline were performed. The experimental procedure was nearly identical, wherein of course 9-methyl-β-carboline instead of 6-fluoro-9-methyl-β-carboline was used. The total dose of 9-methyl-β-carboline was here 0.2 mg and 0.35 mg per ear, respectively.

physchem = conditions: water
Experimental: Furthermore, the solubility of both compounds in water was determined by preparing concentration series of both compounds in water at room temperature. The concentration at which the compound was barely soluble was determined by external calibration. The corresponding concentration was quantified by HPLC.

[6] = tested on: human neuroblastoma cells (SH-SY5Y); experiment: Differentiation of human neuroblastoma cells (SH-SY5Y), morphological examination; assay type: cell-based
Experimental: The SH-SY5Y cell line was obtained from the German collection of microorganisms and cell cultures—DSMZ, Braunschweig. The cells were cultivated in MEM (Minimum essential medium, Life Technologies) with 10% FCS (fetal calf serum, Biochrom AG) and penicillin/streptomycin (Biochrom AG). For morphological examinations the cells were seeded in a density of 1.5×10^4 cells/cm^2 in 24-well plates (Falcon, cell culture treated) with 1 mL medium. A stock solution of 10 mmol/L of the compound according to the invention 6-fluoro-9-methyl-β-carboline was prepared in 50% ethanol and sterile filtered. Five hours after seeding of the cells the compound according to the invention 6-fluoro-9-methyl-β-carboline was added in the corresponding amount to the medium achieving the desired final concentration. The medium was changed once a week. The cells were regularly microscopically examined. Microscopic images were taken at BZ Keyence 10 with a 10×lens and 4×digital zoom. An automatic contrast enhancement was made with the program BZ Analyzer.

[7] = tested on: outer hair cells (OHC) in the inner ear; experiment: Immunohistochemical experiments: dying of outer hair cells after acoustic trauma; assay type: in vivo; conditions: guinea pig, intratympanic, total 0.2 mg per ear, day 14
Experimental: as §8, with “induce” for “trigger”
The thermosensitive, liquid mixture was administered under view by a Hamilton syringe directly in front of the round window membrane of the middle ear (10 μL). The first dose 6-fluoro-9-methyl-β-carboline (e.g. 0.07 mg) was administered one hour after the acoustic trauma in a concentration of 0.007 mg/μL and the second dose 6-fluoro-9-methyl-β-carboline (0.035 mg in a volume of 5 μL) on day 3. Here, only one ear per animal was treated, while the second ear served as intra-individual control. The control here is particularly abbreviated to “contr.”. In comparative experiments it was found, that administration of just an active agent vehicle (hydrogel) has no effect in comparison to a fully untreated ear. For each active agent (including the controls) four guinea pigs were examined.
On day 14 after the acoustic trauma the region of the ear was dissected so that it contained the cochlea. […] In this way the sound induced damage can be localized and quantified. […]

SMILES | DRD2S expression relative to expression induced by 9MβC ([1]; 2-day exposition) | DRD2S expression relative to expression induced by 9MβC ([1]; 7-day exposition) | DRD2S expression relative to expression induced by 9MβC ([1]; 14-day exposition) | BDNF expression relative to expression induced by 9MβC ([2]; 2-day exposition) | BDNF expression relative to expression induced by 9MβC ([2]; longer expositions (7 and 14 days)) | Lif expression relative to expression induced by 9MβC ([3]; 2-day exposition) | Lif expression relative to expression induced by 9MβC ([3]; 7-day exposition) | Lif expression relative to expression induced by 9MβC ([3]; 14-day exposition) | elimination half time [4] | DKK1 expression relative to expression induced by 9MβC ([5]; 2-day exposition) [times] | DKK1 expression relative to expression induced by 9MβC ([5]; 7-day exposition) | DKK1 expression relative to expression induced by 9MβC ([5]; 14-day exposition) [times] | improvement of the recovery of hearing threshold (D1-D14) vs untreated control (hearing threshold) | solubility (physchem) [µg/mL] | neurite growth as indication of differentiation ([6]; 50 μM, compared to 30 μM 6-fluoro-9-methyl-β-carboline) | concentration at which a comparable differentiation of the tested cells is observed ([6]; SH-SY5Y, 15 days incubation) | acoustic trauma-induced dying of outer hair cells [7]
Cn1c2cnccc2c2ccc(F)cc21 [7F9MβC, 7-fluoro-9-methyl-β-carboline] | twice as high | comparable | slightly weaker | approximately three times higher | comparable | approximately three times higher | weaker | comparable | approximately 5.0 h | 1.4 | comparable | 2.2 |  |  |  |  | 
Cn1c2ccccc2c2ccncc21 [9MβC, 9-methyl-β-carboline] |  |  |  |  |  |  |  |  | approximately 3.4 h |  |  |  | about 10 dB | 168 (≈ 924 µM) | too low neurite growth | approximately 70 μM | could counteract the dying of outer hair cells
